Results on 26 molecules are retold here after patent publication US20120214811A1, “RAF INHIBITOR COMPOUNDS AND METHODS OF USE THEREOF” (priority 2009, published 2012).

Molecules are shown by their SMILES.

The target of the first assay is T1, V600E full-length B-Raf (Homo sapiens, UniProt P15056, V600E).
T1 construct: 1 μM FSBA-MEK and 20 nM V600E full-length B-Raf; made in house; host or cells: Sf9 insect cells (baculovirus)
T1 sequence (P15056 whole entry V600E): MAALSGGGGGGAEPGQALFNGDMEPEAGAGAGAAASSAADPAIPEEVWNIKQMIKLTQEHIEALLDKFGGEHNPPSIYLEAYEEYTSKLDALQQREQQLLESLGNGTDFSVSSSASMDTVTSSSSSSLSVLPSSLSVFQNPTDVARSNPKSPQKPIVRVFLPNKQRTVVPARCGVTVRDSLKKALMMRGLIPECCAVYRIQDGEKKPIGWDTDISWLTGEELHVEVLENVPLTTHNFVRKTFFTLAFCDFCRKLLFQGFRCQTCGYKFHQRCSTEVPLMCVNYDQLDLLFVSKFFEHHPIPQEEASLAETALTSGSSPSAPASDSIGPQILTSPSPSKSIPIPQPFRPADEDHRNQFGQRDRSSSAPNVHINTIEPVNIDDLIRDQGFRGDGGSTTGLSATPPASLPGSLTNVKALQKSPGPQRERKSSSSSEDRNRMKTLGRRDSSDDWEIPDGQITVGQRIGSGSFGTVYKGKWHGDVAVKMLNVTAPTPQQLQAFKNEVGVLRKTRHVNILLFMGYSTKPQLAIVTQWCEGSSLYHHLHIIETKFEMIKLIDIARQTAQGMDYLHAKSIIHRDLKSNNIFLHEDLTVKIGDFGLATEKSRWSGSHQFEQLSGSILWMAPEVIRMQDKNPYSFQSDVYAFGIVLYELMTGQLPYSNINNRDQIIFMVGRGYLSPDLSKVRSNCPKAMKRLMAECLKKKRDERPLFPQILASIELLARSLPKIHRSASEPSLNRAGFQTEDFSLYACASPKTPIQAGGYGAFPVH
Put plainly: B-Raf IC50 assay (incorporation of radio labeled phosphate from [γ-33P]ATP into FSBA-modified wild-type MEK). The conditions noted are these: Example A assay; 4 μM ATP, 20 nM V600E full-length B-Raf, 60-minute incubation at 22° C.; read-out: BRAF V600E IC50. Type of assay: biochemical. An excerpt: Determining the activity of Raf in the sample is possible by a number of direct and indirect detection methods (US 2004/0082014). Activity of human recombinant B-Raf protein may be assessed in vitro by assay of the incorporation of radio labeled phosphate to recombinant MAP kinase (MEK), a known physiologic substrate of B-Raf, according to US 2004/0127496 and WO 03/022840. The activity/inhibition of V600E full-length B-Raf was estimated by measuring the incorporation of radio labeled phosphate from [γ-^33]ATP into FSBA-modified wild-type MEK (see Example A).
Activity of human recombinant B-Raf protein may be assessed in vitro by assay of the incorporation of radio labeled phosphate to recombinant MAP kinase (MEK), a known physiologic substrate of B-Raf, according to US 2004/0127496 and WO 03/022840. Catalytically active human recombinant B-Raf protein is obtained by purification from sf9 insect cells infected with a human B-Raf recombinant baculovirus expression vector.
The activity/inhibition of V600E full-length B-Raf was estimated by measuring the incorporation of radio labeled phosphate from [γ-^33P]ATP into FSBA-modified wild-type MEK. The 30-μL assay mixtures contained 25 mM Na Pipes, pH 7.2, 100 mM KCl, 10 mM MgCl2, 5 mM β-glycerophosphate, 100 μM Na Vanadate, 4 μM ATP, 500 nCi [γ-^33P]ATP, 1 μM FSBA-MEK and 20 nM V600E full-length B-Raf. Incubations were carried out at 22° C. in a Costar 3365 plate (Corning). Prior to the assay, the B-Raf and FSBA-MEK were preincubated together in assay buffer at 1.5× (20 μL of 30 nM and 1.5 μM, respectively) for 15 minutes, and the assay was initiated by the addition of 10 μL of 10 μM ATP. Following the 60-minute incubation, the assay mixtures were quenched by the addition of 100 μL of 25% TCA, the plate was mixed on a rotary shaker for 1 minute, and the product was captured on a Perkin-Elmer GF/B filter plate using a Tomtec Mach III Harvester. After sealing the bottom of the plate, 35 μL of Bio-Safe II (Research Products International) scintillation cocktail were added to each well and the plate was top-sealed and counted in a Topcount NXT (Packard).
On to `CCCS(=O)(=O)Nc1ccc(F)c(NC(=O)N(C)c2cc(NC3CCC3)ncn2)c1F` [Example 18, N-(3-(3-(6-(cyclobutylamino)pyrimidin-4-yl)-3-methylureido)-2,4-difluorophenyl)propane-1-sulfonamide], for which the IC50 was 83.6 nM.

With `CCCS(=O)(=O)Nc1ccc(F)c(NC(=O)N(C)c2cc(NC)ncn2)c1F` [Example 17, N-(2,4-difluoro-3-(3-methyl-3-(6-(methylamino)pyrimidin-4-yl)ureido)phenyl)propane-1-sulfonamide], the IC50 worked out at 84.6 nM.

Turning to `CCCS(=O)(=O)Nc1ccc(F)c(NC(=O)Nc2ncnc(NC)n2)c1F` [Example 26, N-(2,4-Difluoro-3-(3-(4-(methylamino)-1,3,5-triazin-2-yl)ureido)phenyl)propane-1-sulfonamide], the IC50 amounted to 235 nM.

With `CCCS(=O)(=O)Nc1ccc(F)c(NC(=O)N(C)c2ccncn2)c1F` [Example 11, Propane-1-sulfonic acid [2,4-difluoro-3-(3-methyl-3-pyrimidin-4-yl-ureido)-phenyl]-amide], the IC50 worked out at 1230 nM.

Regarding `CCCS(=O)(=O)Nc1ccc(F)c(NC(=O)Nc2ccncn2)c1F` [Example 7, Propane-1-sulfonic acid [2,4-difluoro-3-(3-pyrimidin-4-yl-ureido)-phenyl]-amide], the IC50 came out at 1390 nM.

With `CCCS(=O)(=O)Nc1ccc(F)c(NC(=O)N(C)c2cc(NN)ncn2)c1F` [Example 20, N-(2,4-difluoro-3-(3-(6-hydrazinylpyrimidin-4-yl)-3-methylureido)phenyl) propane-1-sulfonamide], the IC50 was 33.4 nM.

For the molecule `CCCS(=O)(=O)Nc1ccc(Cl)c(NC(=O)Nc2cc(NC)ncn2)c1F` [Example 9, N-4-Chloro-2-fluoro-3-(3-((6-(methylamino)pyrimidin-4-yl)ureido)phenyl)propane-1-sulfonamide], the IC50 turned out to be 8.9 nM.

In the case of `CCCS(=O)(=O)Nc1ccc(F)c(NC(=O)Nc2cc(NCCO)ncn2)c1F` [Example 5, N-(2,4-difluoro-3-(3-(6-(2-hydroxyethylamino)pyrimidin-4-yl)ureido)phenyl)propane-1-sulfonamide], the IC50 is 63.5 nM.

For `CCCS(=O)(=O)Nc1ccc(F)c(NC(=O)N(C)c2cc(NCC)ncn2)c1F` [Example 14, N-(3-(3-(6-(ethylamino)pyrimidin-4-yl)-3-methylureido)-2,4-difluorophenyl)propane-1-sulfonamide], the IC50 was 25.6 nM.

In the case of `CCCS(=O)(=O)Nc1ccc(F)c(NC(=O)Nc2cc(NCC)ncn2)c1F` [Example 1, Propane-1-sulfonic acid {3-[3-(6-ethylamino-pyrimidin-4-yl)-ureido]-2,4-difluoro-phenyl}-amide], the IC50 was determined as 28 nM.

For the molecule `CCCS(=O)(=O)Nc1ccc(F)c(NC(=O)Nc2ncncc2-c2ccc(Cl)cc2)c1F` [Example 25], the IC50 was determined as 288 nM.

Consider `CCCS(=O)(=O)Nc1ccc(F)c(NC(=O)N(C)c2cc(NC3CC3)ncn2)c1F` [Example 13, N-(3-(3-(6-(cyclopropylamino)pyrimidin-4-yl)-3-methylureido)-2,4-difluorophenyl)propane-1-sulfonamide], for which the IC50 is 21.8 nM.

Take `CCCS(=O)(=O)Nc1ccc(F)c(NC(=O)Nc2ncncn2)c1F` [Example 24, N-(3-(3-1,3,5-Triazin-2-ylureido)-2,4-difluorophenyl)propane-1-sulfonamide]: the IC50 stood at 122 nM.

Consider `CCCS(=O)(=O)Nc1ccc(F)c(NC(=O)Nc2cc(NCCN3CCOCC3)ncn2)c1F` [Example 6, N-(2,4-difluoro-3-(3-(6-(2-morpholinoethylamino)pyrimidin-4-yl)ureido)phenyl)propane-1-sulfonamide], for which the IC50 is 535 nM.

With `CCCS(=O)(=O)Nc1ccc(F)c(NC(=O)Nc2cc(NC)ncn2)c1Cl` [Example 8, Propane-1-sulfonic acid {2-chloro-4-fluoro-3-[3-(6-methylamino-pyrimidin-4-yl)-ureido]-phenyl}-amide], the IC50 stood at 19.8 nM.

On to `CCCS(=O)(=O)Nc1ccc(F)c(NC(=O)Nc2cc(NC(C)C)ncn2)c1F` [Example 4, N-(2,4-difluoro-3-(3-(6-(isopropylamino)pyrimidin-4-yl)ureido)phenyl)propane-1-sulfonamide], for which the IC50 was determined as 165 nM.

`CCCS(=O)(=O)Nc1ccc(F)c(NC(=O)Nc2cc(N)ncn2)c1F` [Example 2, N-(3-(3-(6-aminopyrimidin-4-yl)ureido)-2,4-difluorophenyl)propane-1-sulfonamide]: the IC50 turned out to be 142 nM.

Take `CCCS(=O)(=O)Nc1ccc(F)c(NC(=O)Nc2cc(NC)ncn2)c1F` [Example 3, N-(2,4-difluoro-3-(3-(6-(methylamino)pyrimidin-4-yl)ureido)phenyl)propane-1-sulfonamide]: the IC50 was 31.2 nM.

As for `CCCS(=O)(=O)Nc1ccc(F)c(NC(=O)N(C)c2cc(NC3CCOC3)ncn2)c1F` (stereo not shown) [Example 19, N-(2,4-difluoro-3-(3-methyl-3-(6-(tetrahydrofuran-3-ylamino)pyrimidin-4-yl)ureido)phenyl)propane-1-sulfonamide], the IC50 stood at 283 nM.

With `CCCS(=O)(=O)Nc1ccc(F)c(NC(=O)N(C)c2cc(Nc3ccn(C)n3)ncn2)c1F` [Example 12, Propane-1-sulfonic acid (2,4-difluoro-3-{3-methyl-3-[6-(1-methyl-1H-pyrazol-3-ylamino)-pyrimidin-4-yl]-ureido}-phenyl)-amide], the IC50 is 59.1 nM.

Take `CCCS(=O)(=O)Nc1ccc(F)c(NC(=O)N(C)c2cc(NCCN3CCOCC3)ncn2)c1F` [Example 22, N-(2,4-difluoro-3-(3-methyl-3-(6-(2 morpholinoethylamino)pyrimidin-4-yl)ureido)phenyl)propane-1-sulfonamide]: the IC50 was found to be 616 nM.

`CCCS(=O)(=O)Nc1ccc(Cl)c(NC(=O)Nc2cc(NCc3ccccc3)ncn2)c1F` [Example 10, N-(3-(3-(6-(Benzylamino)pyrimidin-4-yl)ureido)-4-chloro-2-fluorophenyl)propane-1-sulfonamide]: the IC50 was 19.2 nM.

For the molecule `CCCS(=O)(=O)Nc1ccc(F)c(NC(=O)N(C)c2cc(N)ncn2)c1F` [Example 15, N-(3-(3-(6-aminopyrimidin-4-yl)-3-methylureido)-2,4-difluorophenyl)propane-1-sulfonamide], the IC50 is 83.3 nM.

`CCCS(=O)(=O)Nc1ccc(F)c(NC(=O)N(C)c2cc(NC(C)C)ncn2)c1F` [Example 21, N-(2,4-difluoro-3-(3-(6-(isopropylamino)pyrimidin-4-yl)-3-methylureido)phenyl) propane-1-sulfonamide]: the IC50 was 132 nM.

For `CCCS(=O)(=O)Nc1ccc(F)c(NC(=O)N(C)c2cc(NCCO)ncn2)c1F` [Example 16, N-(2,4-difluoro-3-(3-(6-(2-hydroxyethylamino)pyrimidin-4-yl)-3-methylureido)phenyl) propane-1-sulfonamide], the IC50 came out at 121 nM.

As for `CCCS(=O)(=O)Nc1ccc(F)c(NC(=O)Nc2ncnc(Nc3ccc(F)cc3)n2)c1F` [Example 23, N-(2,4-Difluoro-3-(3-(4-(4-fluorophenylamino)-1,3,5-triazin-2-yl)ureido)phenyl)propane-1-sulfonamide], the IC50 is 13.4 nM.

The test system of the next assay is basal ERK1/2 phosphorylation. Kind of assay: Cellular ERK 1/2 phosphorylation assay in Malme-3M cells. The conditions noted are these: Homo sapiens, 1 hour incubation, pERK signal normalized to total ERK, read-out: IC50, inhibition of basal ERK1/2 phosphorylation. It is filed as cell-based. As for the experimental part: Inhibition of basal ERK1/2 phosphorylation was determined by the following in vitro […], which comprises incubating cells with a compound of Formula II for 1 hour and quantifying the fluorescent pERK signal on fixed cells and normalizing to total ERK signal.
Materials and Methods: Malme-3M cells were obtained from ATCC and grown in RPMI-1640 supplemented with 10% fetal bovine serum. Cells were plated in 96-well plates at 24,000 cells/well and allowed to attach for 16-20 hours at 37° C., 5% CO2. The media was removed, and DMSO-diluted compounds were added in RPMI-1640 at a final concentration of 1% DMSO. The cells were incubated with the compounds for 1 hour at 37° C., 5% CO2. The cells were washed with PBS and fixed in 3.7% formaldehyde in PBS for 15 minutes. This was followed by washing in PBS/0.05% Tween20 and permeabilizing in −20° C. 100% MeOH for 15 minutes. Cells were washed in PBS/0.05% Tween20 then blocked in Odyssey blocking buffer (LI-COR Biosciences) for 1 hour. Antibodies to phosphorylated ERK (1:400, Cell Signaling #9106, monoclonal) and total ERK (1:400, Santa Cruz Biotechnology #sc-94, polyclonal) were added to the cells and incubated 16-20 hours at 4° C. […] Cells were then washed and analyzed for fluorescence at both wavelengths using the Odyssey Infrared Imaging System (LI-COR Biosciences). […]
Turning to `CCCS(=O)(=O)Nc1ccc(F)c(NC(=O)Nc2cc(NC)ncn2)c1Cl` [Example 8, Propane-1-sulfonic acid {2-chloro-4-fluoro-3-[3-(6-methylamino-pyrimidin-4-yl)-ureido]-phenyl}-amide], the IC50 is about 153 nM.

For `CCCS(=O)(=O)Nc1ccc(F)c(NC(=O)Nc2cc(N)ncn2)c1F` [Example 2, N-(3-(3-(6-aminopyrimidin-4-yl)ureido)-2,4-difluorophenyl)propane-1-sulfonamide], the IC50 is about 438 nM.
